The source of these data is patent publication EP0401517A1, “Substituted 2-alkynylphenols with anti-inflammatory action, a process for their preparation and pharmaceutical compositions thereof” (CAMILLO CORVI S.p.A., priority 1989, dated 1990).

Molecules are shown by their SMILES.

For one assay, the system named is cyclo-oxygenase. Kind of assay: In vitro cyclo-oxygenase activity: malondialdehyde production in guinea pig lung homogenate incubated with arachidonic acid and cofactors. Format: biochemical. As for the experimental part: (§1) These new products are active in vitro as inhibitors of cyclo-oxygenase (malondialdehyde production test in guinea pig lung homogenates) and/or of the 5-lipo-oxygenase (A23187 stimulated rabbit leucocytes test).
The cyclooxygenase activity is determined according to the method of Luzzani et al. (Luzzani, F., et al. INT. J. TISS. REAC. X(2); 79-83, 1988), by monitoring the production of malondialdehyde in a guinea pig lung homogenate incubated in the presence of arachidonic acid and cofactors.
(§2) In Table I below the results of the comparisons of 8 inventive compounds with 3 prior art compounds are shown. In column "CO" the data concerning cyclo-oxygenase, and in column "5-LO" those concerning 5-lipo-oxygenase are shown.

The target of another assay is T1, 5-lipo-oxygenase (Oryctolagus cuniculus, UniProt G1SNX0).
T1 construct: a preparation of calcium ionophore A23187 stimulated rabbit leukocites; endogenous in cells; host or cells: rabbit leukocytes
T1 sequence (G1SNX0 1-674): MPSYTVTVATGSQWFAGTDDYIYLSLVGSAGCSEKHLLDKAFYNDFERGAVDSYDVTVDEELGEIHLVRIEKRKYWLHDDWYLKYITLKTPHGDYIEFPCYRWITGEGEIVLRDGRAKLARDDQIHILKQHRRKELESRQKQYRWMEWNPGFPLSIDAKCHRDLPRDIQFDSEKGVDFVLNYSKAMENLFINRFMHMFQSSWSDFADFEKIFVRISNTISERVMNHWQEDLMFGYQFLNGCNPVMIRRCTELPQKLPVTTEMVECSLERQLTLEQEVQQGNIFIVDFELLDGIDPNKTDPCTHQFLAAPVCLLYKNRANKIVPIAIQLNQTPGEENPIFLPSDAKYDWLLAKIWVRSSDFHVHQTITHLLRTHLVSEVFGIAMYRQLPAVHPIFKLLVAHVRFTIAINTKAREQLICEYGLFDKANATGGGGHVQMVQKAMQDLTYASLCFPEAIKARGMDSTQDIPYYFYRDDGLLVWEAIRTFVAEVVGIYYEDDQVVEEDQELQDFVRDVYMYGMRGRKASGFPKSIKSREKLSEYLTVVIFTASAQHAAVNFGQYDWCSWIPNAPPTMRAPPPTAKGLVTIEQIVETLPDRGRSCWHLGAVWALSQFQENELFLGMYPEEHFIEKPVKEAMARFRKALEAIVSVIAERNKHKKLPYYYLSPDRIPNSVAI
Kind of assay: In vitro 5-lipo-oxygenase activity: formation of leukotriene B4 from [14C] arachidonic acid in calcium ionophore A23187 stimulated rabbit leukocytes (radiometric T.L.C. assay). Format: cell-based. Conditions: read-out: 5-LO (% of inhibition at 10 µM). The procedure:
as §1
The formation of leukotriene B₄ from [¹⁴C] arachidonic acid in a preparation of calcium ionophore A23187 stimulated rabbit leukocites is measured by means of a slightly modified radiometric T.L.C.assay based on published procedures (Beetens, J.R. et al. BIOCHEM. PHARMACOL 35 (6); 883, 1986).
as §2

Turning to `NC1=NN(c2cccc(C(F)(F)F)c2)CC1` [BW 755 c, reference compound], the “CO (% of inhibition at 10 µM)” value in the assay on cyclo-oxygenase was 30%. Further, on 5-lipo-oxygenase, the inhibition (usually the share of the control response that was lost under treatment) at 10 µM is 25%.

On to `COc1cccc(CC#Cc2ccccc2)c1O` [CO/1826, 2-(3-Phenyl-2-propynyl)-6-methoxyphenol], for which the “CO (% of inhibition at 10 µM)” value with cyclo-oxygenase worked out at 66%. Further, the inhibition at 10 µM on 5-lipo-oxygenase came out at 52%.

Regarding `COc1ccc(O)c(CC#Cc2ccccc2)c1` [CO/1828, 2-(3-Phenyl-2-propynyl)-4-metoxyphenol], the “CO (% of inhibition at 10 µM)” value with cyclo-oxygenase was found to be 50%. The inhibition at 10 µM at 5-lipo-oxygenase stood at 57%.

Regarding `CCCCCCC#CCc1cc(OC)ccc1O` [CO/1837, 4-Methoxy-2-(2-nonynyl)phenol], the “CO (% of inhibition at 10 µM)” value in the assay on cyclo-oxygenase amounted to 52%. Besides, at 5-lipo-oxygenase, the inhibition at 10 µM was 92%.

Consider `COc1ccc(O)c(C(C)C#Cc2ccccc2)c1` (stereo not drawn) [CO/1863, 2-(4-Phenyl-3-butyne-2-yl)-4-methoxyphenol], for which, in the assay on cyclo-oxygenase, the “CO (% of inhibition at 10 µM)” value is 23%. Also, the inhibition at 10 µM at 5-lipo-oxygenase stood at 46%.

As to `Oc1cccc(CC#Cc2ccccc2)c1O` [CO:1841, 3-(3-Phenyl-2-propynyl)pyrocatechol], the “CO (% of inhibition at 10 µM)” value with cyclo-oxygenase worked out at 26%. Besides, the inhibition at 10 µM on 5-lipo-oxygenase turned out to be 90%.

In the case of `CC(C#Cc1ccccc1)c1cc(OCc2ccccc2)ccc1O` (stereo not drawn) [CP/1864, 4-Benzyloxy-2-(4-phenyl-3-butyne-2-yl)phenol], the “CO (% of inhibition at 10 µM)” value in the assay with cyclo-oxygenase is 0%. Besides, on 5-lipo-oxygenase, the inhibition at 10 µM worked out at 68%.

Take `COc1ccc2c(c1)c(CC(=O)O)c(C)n2C(=O)c1ccc(Cl)cc1` [INDOMETHACIN, reference compound]: in the assay with cyclo-oxygenase, the “CO (% of inhibition at 10 µM)” value is listed as 98%. Further, the inhibition at 10 µM at 5-lipo-oxygenase came to 0%.

As to `CC(Cc1ccc(O)c(O)c1)C(C)Cc1ccc(O)c(O)c1` (stereo not drawn) [NORDIHYDROGUAIARETIC ACID, reference compound], the “CO (% of inhibition at 10 µM)” value in the assay on cyclo-oxygenase is reported as 5%. The inhibition at 10 µM at 5-lipo-oxygenase was 92%.
